These are literature values, as cited in patent US20080131525A1, “Therapeutic Nutrient Compositions Or Combinations And Methods Of Their Use” (priority 2004, published 2008).

For the series the following is noted: human, in vivo.

Residues, ends and D or L forms follow the SMILES beside them.

Consider `C[C@H](N)C(=O)N[C@@H](CCC(N)=O)C(=O)O` [ala-gln, N(2)-L-alanyl-L-glutamine] (H-Ala-Gln-OH), for which the calculated distribution volume result is “equivalent to that of the extracellular compartment”, the “dipeptide in plasma after the end of infusion” value was “no longer detectable in plasma”, the dipeptide in urine result was “no ala-gln was detected in urine” and the half-life was 2.4 to 3.8 min. For the same compound, the plasma clearance rate is 1.92 L/min. Besides, the “dipeptide in plasma over the infusion period” value (24 mg/kg) is “only trace quantities”. Further, where the note is “iv”, the “hydrolysis after intravenous infusion” value was “rapidly hydrolysed” and the tolerability result was “well tolerated”.
